Laboratory results taken from PMC10251479, “PROTAC-Induced Glycogen Synthase Kinase 3β Degradation as a Potential Therapeutic Strategy for Alzheimer’s Disease” (ACS Chemical Neuroscience, 2023).

Columns and labels:
GSK-3β protein [1] = molecular target: T1, GSK-3β protein (Homo sapiens, UniProt P49841); assay: GSK-3β degradation by Western blotting in SH-SY5Y cells; type: cell-based; design: endogenous in cells; host or cells: SH-SY5Y
Procedure: Determination of GSK-3β degradation by Western Blotting
At the end of incubation, cells were trypsinized and the cellular pellet was resuspended in complete lysis buffer containing leupeptin (2 µg/mL, Sigma-Aldrich), phenylmethylsulfonyl fluoride (PMSF, 100 µg/mL, Sigma-Aldrich) and a cocktail of protease/phosphatase inhibitors (100×). The protein concentration was determined using the Bradford method (Bio-Rad Laboratories Srl, Hercules, CA, USA). The protein lysates (50 µg per […]
polyacrylamide gels, Bio-Rad Laboratories SrL) and electroblotted onto 0.45 µm nitrocellulose membranes. Membranes were incubated overnight at 4 °C with primary antibody recognizing GSK-3β (1:1000, Cell Signaling Technologies Inc, Danvers, MA, USA). Membranes were then washed with TRIS-buffered saline-T (TBS + 0.05% Tween20), and then incubated with horseradish peroxidase (POD) linked anti-rabbit secondary antibody (1:2000, GE Healthcare, Chicago, IL, USA).
Immunoreactive bands were visualized by enhanced chemiluminescence (ECL, Bio-Rad Laboratories Srl). The same membranes were stripped and reprobed with anti β-actin (1:1000, Sigma-Aldrich). Data were normalized on the β-actin bands and analyzed by densitometry, using the Quantity One software (Bio-Rad Laboratories Srl).[9] […]

SH-SY5Y cells [2] = assay: Neuroprotective effects against Aβ25-35 peptide in SH-SY5Y cells (MTT); type: cell-based, human; conditions: 0.5 and 1 μM for 2 h, then 3 h with Aβ25–35 10 μM
Procedure: Data are reported as mean ± SEM of three independent experiments. […]
measured (570 nm, reference filter 690 nm) using a multilabel plate reader (VICTOR™ X3, PerkinElmer, Waltham, MA, USA).[11] Data are reported as mean ± SEM of three independent experiments. The neurotoxicity was expressed as a percentage of control cells and calculated by the formula: 100 – ((absorbance of treated neurons/absorbance of untreated neurons) × 100). […]
analysis was performed using one-way ANOVA with the Dunnett post hoc test. Differences were considered significant at p < 0.05. Analyses were performed using GraphPad PRISM software (version 5.0; GraphPad Software, La Jolla, CA, USA) on a Windows platform.
11. PAMPA BBB permeation studies.
Prediction of the brain penetration was evaluated using a parallel artificial membrane permeability assay (PAMPA).[12] Ten commercial drugs, PBS at pH 7.4, EtOH, and dodecane were purchased from Sigma- Aldrich, Acros organics, Merck, and Fluka. The porcine polar brain lipid (PBL) was from Avanti Polar Lipids. The donor plate was a 96-well filtrate plate (Multiscreen® IP Sterile Plate PDVF […]
both from Millipore. Filter PDVF membrane units (diameter 30 mm, pore size 0.45 µm) from Symta were used to filter the samples. A 96-well plate UV reader (Biteck Instruments, Synergy H4 Hibrid Reader) was used for the UV measurements.
12 mg of promazine) were dissolved in 1 mL of EtOH. […]

GSK-3β protein [3] = molecular target: T1, GSK-3β protein; assay: GSK-3β inhibition in vitro assay (Kinase-Glo luminescent); type: biochemical; design: purchased Millipore (Millipore Iberica S.A.U.); conditions: ATP 1 μM, GSM substrate 25 μM, 30 min at 37 °C; mean of at least two determinations in duplicate; read-out: IC50 ± SEM, GSK-3β activity
Excerpt: N-(2-(2-(2-((2-(2,6-dioxopiperidin-3-yl)-1,3-dioxoisoindolin-4-yl)amino)ethoxy)ethoxy)ethyl)- 4-((2-(naphthalen-1-yl)-3,5-dioxo-1,2,4-thiadiazolidin-4-yl)methyl)benzamide (4). Synthesized […]
GSK-3β inhibition in vitro assay. Human recombinant GSK-3β, prephosphorylated polypeptide substrate and white 96-well plates were purchased from Millipore (Millipore Iberica S.A.U.). Kinase-Glo Luminescent Kinase Assay was obtained from Promega (Promega Biotech Iberica, SL).
Adenosinetriphosphate (ATP) and all other reagents were from Sigma-Aldrich. Assay buffer contained 50 mM 4-(2-hydroxyethyl)-1- piperazineethanesulfonic acid (HEPES) (pH 7.5), 1 mM ethylenediaminetetraacetic acid (EDTA), 1 mM ethylene glycol tetraacetic acid (EGTA), and 15 mM magnesium acetate. The in solution experiments for GSK-3β inhibition analysis were performed by following the method developed by Baki et al.[1] In a typical assay, 10 μL of test compound (dissolved […]
in DMSO at 1 mM concentration and diluted in advance in assay buffer to the desired concentration) and 10 μL (20 ng) of enzyme were added to each well in presence of 20 μL of assay buffer containing […]
After a 30 min incubation time at 37 °C, the enzymatic reaction was stopped by adding 40 μL of Kinase-Glo reagent. Glow-type luminescence was recorded after 10 min using a Victorx3 (PerkinElmer Waltham, MA, USA) plate […]
inhibitory activities were calculated based on maximal kinase (average positive) and luciferase activities (average negative) measured in the absence of inhibitor and in the presence of reference […]
μM), respectively. The linear regression parameters were determined and the IC 50 extrapolated by GraphPad software (version 5.0; GraphPad Software, La Jolla, CA, USA).

SH-SY5Y cells [4] = assay: Neuroprotective effects against CuSO4 in SH-SY5Y cells (MTT); type: cell-based, human; conditions: 24 h, CuSO4 150 μM
Procedure: SH-SY5Y cells were seeded in a 96-well plate at 2 × 10^4 cells/well, incubated for 24 h and then […]
presence of CuSO4 (150 µM) at 37 °C in 5 % CO2. Cells were also treated with compound 1 (1 µM) for 24 h in the presence of lactacystin (5 µM). At the end of the treatment, the cell viability, in terms of mitochondrial metabolic function, was evaluated by the reduction of 3-(4,5-dimethyl-2-thiazolyl)- 2,5-diphenyl-2H-tetrazolium bromide (MTT) to its insoluble formazan. Briefly, the treatment was replaced with MTT in HBSS [0.5 mg/mL] for 2 h at 37°C in 5% CO2. After washing with HBSS, formazan crystals were dissolved in isopropanol. The amount of formazan was measured (570 nm, reference filter 690 nm) using a multilabel plate reader (VICTOR™ X3, PerkinElmer, Waltham, MA, USA).[10] Data are reported as mean ± SEM of three independent experiments. The neurotoxicity was expressed as a percentage of control cells and calculated by the formula: 100 – ((absorbance of treated

T1 sequence (P49841 whole entry): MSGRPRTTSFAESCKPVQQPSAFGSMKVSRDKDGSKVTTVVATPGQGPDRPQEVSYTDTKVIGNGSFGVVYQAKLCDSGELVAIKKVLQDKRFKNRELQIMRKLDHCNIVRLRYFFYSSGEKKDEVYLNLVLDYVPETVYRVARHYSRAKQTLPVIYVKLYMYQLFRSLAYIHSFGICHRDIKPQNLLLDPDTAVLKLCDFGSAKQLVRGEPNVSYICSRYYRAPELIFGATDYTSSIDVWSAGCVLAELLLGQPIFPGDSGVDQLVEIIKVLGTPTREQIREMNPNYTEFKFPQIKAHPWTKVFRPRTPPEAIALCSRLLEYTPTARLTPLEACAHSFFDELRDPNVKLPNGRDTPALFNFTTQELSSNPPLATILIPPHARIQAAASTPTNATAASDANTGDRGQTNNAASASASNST

DC50 (GSK-3β protein [1]; 48 h, 0.5, 1, 5 and 10 μM, read-out: half-maximal degradation (DC50)): 6.22 µM | concentration from which GSK-3β is degraded (GSK-3β protein [1]; dose-dependent): ≥ 0.5 µM | IC50 (GSK-3β protein [3]): 0.833 ± 0.062 µM
Compound: O=C(Cn1cc(C2=C(c3ccc(Cl)cc3Cl)C(=O)NC2=O)c2ccccc21)NCCCOCCCCOCCCNc1cccc2c1C(=O)N(C1CCC(=O)NC1=O)C2=O (stereo not drawn) [Compound 1]
total GSK-3β protein level (GSK-3β protein [1]; 10 μM, 48 h, Western blotting): significantly decreased the total level of GSK-3β protein | GSK-3β protein level, dose dependence (GSK-3β protein [1]; 48 h at 0.5, 1, 5 and 10 μM): significantly decreased GSK-3β protein level at all tested concentrations in a dose-dependent manner | total GSK-3β protein level in the presence of lactacystin (GSK-3β protein [1]; compound 10 μM, 24 h, lactacystin 5 μM): had no effect on the total GSK-3β protein level | neurotoxicity induced by Aβ25–35 peptide (SH-SY5Y cells [2]): markedly reduced the neurotoxicity induced by Aβ25–35 peptide | neurotoxicity induced by CuSO4 (SH-SY5Y cells [4]; 1 μM, MTT): significantly counteracted the neurotoxicity induced by CuSO4 | neuroprotective effect against CuSO4 in the presence of lactacystin (SH-SY5Y cells [4]; lactacystin 5 μM): abolished by lactacystin
